Experiment [1] concerns orthopoxviruses, including variola. The note with it: cited from earlier work.
The test system of another experiment is SKOV3.A2. The note with it: cited from earlier work.
In experiment [2] the test system is C3H/HeJ mice (H-2^k); antibodies against the PGCC(95–104) epitope peptide. The note with it: mouse, in vivo.
The test system is the same in experiment [3]. The note with it: mouse, in vivo. The source holds these as a separate data set.
Another experiment deals with SJL/J (H-2s) mice. The note with it: mouse, in vivo; cited from earlier work.
For another experiment, the system named is mice. The note with it: mouse, in vivo; cited from earlier work.

These results are taken from US7179645B2 (priority 2002, dated 2007).

Like-named read-outs stand apart in the source and are kept apart here. Where a SMILES comes first, the peptide text is derived from it. [ ]: non-standard residue; d: D form. Nle = CCCC[C@H](N)C(=O)O; ava = not defined here

As to `Nc1ccn(C[C@@H](CO)OCP(=O)(O)O)c(=O)n1` [Cidofivir], in experiment [1], the activity against orthopoxviruses entry is recorded as “shows activity”. With `CCCC[C@@H](C=O)NC(=O)[C@H](CC(C)C)NC(=O)[C@H](CC(C)C)NC(C)=O` [acetyl-Leu-Leu-norleucinal] (Ac-Leu-Leu-[Nle]-aldehyde), in the experiment with SKOV3.A2, the “presentation of the CTL epitope Her-2/neu(369–377)” value is on record as “inhibited”.

As to “Ac-LRMK-ava-IAYLKQATAK-NH2 (Ac-LRMK[ava]IAYLKQATAK-NH2; reading uncertain; also: printed as Ac-LRMK-ava-IAYLKQATAK-NH2) [Ii-Key/PGCC]”, in experiment [2], the “antibody titers against PGCC epitope” value is listed as “Significantly greater antibody titers”. In experiment [3], the “Antibody induction (ELISA), Dilution^−1 1620” value was 0.071; the “Antibody induction (ELISA), Dilution^−1 4860” value was 0.024; the “antibody titers against PGCC epitope” value is reported as “Significantly greater antibody titers”. Take HCLGKWLGHPDKFVGI [PL139–154]: the “mice with severe clinical and histological EAE” value with SJL/J (H-2s) mice is 3 of 20. In the case of MOG35–55, in the experiment on mice, the “encephalitogenic potential (specific T-cell responses, EAE)” value is “induced specific T-cell responses and EAE”.
